These results are taken from US20250171451A1, “NOVEL HETEROCYCLIC COMPOUND AND PHARMACEUTICAL COMPOSITION COMPRISING SAME” (Samjin Pharmaceutical Co., Ltd., priority 2022, published 2025).

For assay [1], the system named is TEAD response element (TRE) luciferase reporter in MCF-7 cell lines. Nature of the assay: TEAD response element (TRE) reporter assay. It counts as cell-based. As to conditions: Homo sapiens, MCF7; 0.2 μM compound, 24 hours, MCF-7 TEAD reporter cells, relative to vehicle (1% DMSO). How it is done: MCF-7 cell lines injected with TEAD reporter genes expressing firefly luciferase upon activation of TEAD response element (TRE) were obtained from BPS bioscience (#60618). The TEAD reporter genes were injected to stable expression in the MCF-7 cell lines.
TEAD reporter genes expressing firefly luciferase upon activation of TEAD response element (TRE) were injected with TEAD reporter genes to ensure stable expression of the TEAD reporter genes. Here, the TEAD reporter genes expresses firefly luciferase upon activation of TEAD response element (TRE). The cells were cultured in a cell-only culture medium (BPS bioscience) to which 10 μg/mL insulin (Sigma) was added at 37° C. and 5% CO2.
In 24 hours after dispensing said cells into a 96-well plate, each of the compounds of the examples or a vehicle solvent (final 1% DMSO) was treated by being diluted with a serum-free culture medium so that the final concentration became 0.2 μM. In 24 hours after said treatment, a luciferase assay working solution (ONE-Step Luciferase assay reagent; BPS bioscience) containing a luciferase substrate was treated in each well at 100 μL, and then left in a shaker for 15 minutes to be well mixed. Then, a degree of luminescence generated by luciferase expressed according to TEAD activation was measured by a microplate reader (TECAN). A relative activity of luciferase […], and the results are shown in table 8 below.
Background: A reporter such as luciferase makes a cellular process visible.

In assay [2] the target is T1, recombinant GST-TEAD1 proteins (209 to 426 a.a.) (Homo sapiens, UniProt P28347).
T1 construct: recombinant GST-TEAD1 proteins (209 to 426 a.a.)
Nature of the assay: Evaluation of palmitoylation of TEAD protein. The class given is biochemical. The conditions noted are these: 5 μM compound, 15 minutes preincubation, 3 μM alkyne palmitoyl-CoA 30 minutes, pH 6.4, vs DMSO control. The method, then:
Each compound corresponding to a concentration of 5 μM was added to recombinant GST-TEAD1 proteins (209 to 426 a.a.) and cultured for 15 minutes. For an autopalmitoylation reaction of proteins after culturing, 3 μM alkyne palmitoyl-CoA (Cayman chemical) and 50 mM MES buffer (pH 6.4) were added and cultured for 30 minutes, after which 1% of sodium dodecyl sulfate (SDS) was added to stop the reaction. After that, biotinylation was performed through a CLICK (Click chemistry tools) reaction, and then a protein solution was concentrated to prepare a sample.
Analysis of the sample was performed using SDS-PAGE and streptavidin HRP (Thermo scientific). The resulting values were quantified using an Image J (NIH). For the intensity of the band obtained from Streptavidin blot, a palmitoylation inhibitory activity was analyzed based on the control group (DMSO). The normalization of each sample was performed using an anti-GST (91G1) (cell signaling) antibody.

T1 sequence (P28347 209-426): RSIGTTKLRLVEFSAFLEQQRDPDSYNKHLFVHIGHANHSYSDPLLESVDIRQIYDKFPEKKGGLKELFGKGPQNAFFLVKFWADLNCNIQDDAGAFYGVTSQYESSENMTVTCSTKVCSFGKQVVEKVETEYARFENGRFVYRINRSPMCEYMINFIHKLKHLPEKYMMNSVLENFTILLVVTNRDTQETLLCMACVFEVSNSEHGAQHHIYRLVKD

For orientation: inhibition means how much of the control response was suppressed. Turning to `C=CS(=O)(=O)Nc1cnc2ncn(-c3ccc(C4CCCCC4)cc3)c2c1` [Compound 1, N-(1-(4-cyclohexylphenyl)-1H-imidazo[4,5-b]pyridin-6-yl)ethenesulfonamide], in assay [1], the inhibition at 0.2 µM is below 30%.

Turning to `C=CC(=O)Nc1cnc2ncn(-c3ccc(C4CCCCC4)cc3)c2c1` [Compound 2, N-(1-(4-cyclohexylphenyl)-1H-imidazo[4,5-b]pyridin-6-yl)acrylamide], the inhibition at 0.2 µM in assay [1] was below 30%.

For the compound `C=CC(=O)Nc1cnc2c(ccn2Cc2ccc(C(F)(F)F)cc2)c1` [Compound 4, N-(1-(4-(trifluoromethyl)benzyl)-1H-pyrrolo[2,3-b]pyridin-5-yl)acrylamide], the inhibition at 0.2 µM in assay [1] fell in the range of 30 to 50%. Further, the inhibition at 5 µM in assay [2] lay within 40 to 80%. For `C=CC(=O)Nc1ccc2c(cnn2Cc2ccc(C(F)(F)F)cc2)c1` [Compound 6, N-(1-(4-(trifluoromethyl)benzyl)-1H-indazol-5-yl)acrylamide] the same measures were 30 to 50% and above 80%. On the same counts, the results for `C=CC(=O)Nc1ccc2c(c1)CCN2Cc1ccc(C(F)(F)F)cc1` [Compound 7, N-(1-(4-(trifluoromethyl)benzyl)indolin-5-yl)acrylamide] are above 50% and above 80%. As for `C=CC(=O)Nc1cnc2c(cnn2CC2CCCC2)c1` [Compound 8, N-(1-(cyclopentylmethyl)-1H-pyrazolo[3,4-b]pyridin-5-yl)acrylamide], the inhibition at 0.2 µM in assay [1] was 30 to 50%. The inhibition at 5 µM in assay [2] was in the range of 40 to 80%. `C=CC(=O)Nc1cnc2c(c1)c(C)cn2CC1CCCC1` [Compound 9, N-(1-(cyclopentylmethyl)-3-methyl-1H-pyrrolo[2,3-b]pyridin-5-yl)acrylamide] showed an inhibition at 0.2 µM in assay [1] above 50%. Also, in assay [2], the inhibition at 5 µM was above 80%. In the case of `C=CC(=O)Nc1cnc2c(c1)c(C)cn2CC1CCC(F)(F)CC1` [Compound 10, N-(1-((4,4-difluorocyclohexyl)methyl)-3-methyl-1H-pyrrolo[2,3-b]pyridin-5-yl)acrylamide], the inhibition at 0.2 µM in assay [1] is above 50%. For the same compound, in assay [2], the inhibition at 5 µM was above 80%. The compound `C=CC(=O)Nc1cnc2c(cnn2CC2CCC(F)(F)CC2)c1` [Compound 11, N-(1-((4,4-difluorocyclohexyl)methyl)-1H-pyrazolo[3,4-b]pyridin-5-yl)acrylamide] showed an inhibition at 0.2 µM in assay [1] of 30 to 50%. In addition, the inhibition at 5 µM in assay [2] was in the range of 40 to 80%. For the compound `C=CC(=O)Nc1cnc2c(cnn2CCCOC(F)(F)F)c1` [Compound 12, N-(1-(3-(trifluoromethoxy)propyl)-1H-pyrazolo[3,4-b]pyridin-5-yl)acrylamide], the inhibition at 0.2 µM in assay [1] is below 30%. Besides, the inhibition at 5 µM in assay [2] was below 40%. For `C=CC(=O)Nc1cnc2c(c1)c(C)nn2Cc1ccc(C(F)(F)F)cc1` [Compound 13, N-(3-methyl-1-(4-(trifluoromethyl)benzyl)-1H-pyrazolo[3,4-b]pyridin-5-yl)acrylamide] the same measures were 30 to 50% and above 80%. In assay [1], `C=CC(=O)Nc1cnc2c(c1)c(C)nn2CC1CCC(F)(F)CC1` [Compound 14, N-(1-((4,4-difluorocyclohexyl)methyl)-3-methyl-1H-pyrazolo[3,4-b]pyridin-5-yl)acrylamide] gave an inhibition at 0.2 µM above 50%. The inhibition at 5 µM in assay [2] fell in the range of 40 to 80%.

Compound `C=CC(=O)Nc1cnc2c(ccn2Cc2ccc(C(F)(F)F)cc2)n1` [Compound 15, N-(5-(4-(trifluoromethyl)benzyl)-5H-pyrrolo[2,3-b]pyrazin-2-yl)acrylamide] came in with an inhibition at 0.2 µM in assay [1] above 50%. The inhibition at 5 µM in assay [2] was above 80%. In assay [1], `C=CC(=O)Nc1cnc2c(cnn2Cc2ccc(C(F)(F)F)cc2)n1` [Compound 16, N-(1-(4-(trifluoromethyl)benzyl)-1H-pyrazolo[3,4-b]pyrazin-5-yl)acrylamide] gave an inhibition at 0.2 µM above 50%. The inhibition at 5 µM in assay [2] is below 40%.

Compound `C=CC(=O)Nc1ccc2cnn(Cc3ccc(C(F)(F)F)cc3)c2c1` [Compound 17, N-(1-(4-(trifluoromethyl)benzyl)-1H-indazol-6-yl)acrylamide] registered an inhibition at 0.2 µM in assay [1] of 30 to 50%. For the same compound, the inhibition at 5 µM in assay [2] lay in the range of 40 to 80%. `C=CC(=O)Nc1cnc2c(ccn2Cc2ccc(C(F)(F)F)cc2)c1OC` [Compound 18, N-(4-methoxy-1-(4-(trifluoromethyl)benzyl)-1H-pyrrolo[2,3-b]pyridin-5-yl)acrylamide] yielded an inhibition at 0.2 µM in assay [1] of 30 to 50%. In addition, the inhibition at 5 µM in assay [2] was above 80%.

For the compound `C=CC(=O)Nc1ncc2cnn(Cc3ccc(C(F)(F)F)cc3)c2n1` [Compound 19, N-(1-(4-(trifluoromethyl)benzyl)-1H-pyrazolo[3,4-d]pyrimidin-6-yl)acrylamide], the inhibition at 0.2 µM in assay [1] is below 30%. The inhibition at 5 µM in assay [2] is below 40%. As for `C=CC(=O)Nc1ncc2c(C)nn(Cc3ccc(C(F)(F)F)cc3)c2n1` [Compound 20, N-(3-methyl-1-(4-(trifluoromethyl)benzyl)-1H-pyrazolo[3,4-d]pyrimidin-6-yl)acrylamide], the inhibition at 0.2 µM in assay [1] was below 30%. The inhibition at 5 µM in assay [2] is below 40%. On to `CC=CC(=O)Nc1cnc2c(c1)c(C)cn2Cc1ccc(C(F)(F)F)cc1` [Compound 21, N-(3-methyl-1-(4-(trifluoromethyl)benzyl)-1H-pyrrolo[2,3-b]pyridin-5-yl)but-2-enamide], for which the inhibition at 0.2 µM in assay [1] was below 30%. Further, the inhibition at 5 µM in assay [2] is below 40%.

On to `C=CC(=O)Nc1ncc2c(cnn2Cc2ccc(C(F)(F)F)cc2)n1` [Compound 22, N-(1-(4-(trifluoromethyl)benzyl)-1H-pyrazolo[4,3-d]pyrimidin-5-yl)acrylamide], for which the inhibition at 0.2 µM in assay [1] was below 30%. In addition, the inhibition at 5 µM in assay [2] is below 40%.

Compound `CC=CC(=O)Nc1cnc2c(c1)c(C)cn2CCCC` [Compound 23, N-(1-butyl-3-methyl-1H-pyrrolo[2,3-b]pyridin-5-yl)but-2-enamide] returned an inhibition at 0.2 µM in assay [1] below 30%. In assay [2], the inhibition at 5 µM is below 40%. For `C=CC(=O)Nc1cnc2c(c1)c(C)cn2C(=O)c1ccc(C(F)(F)F)cc1` [Compound 24, N-(3-methyl-1-(4-(trifluoromethyl)benzoyl)-1H-pyrrolo[2,3-b]pyridin-5-yl)acrylamide] the same measures were below 30% and above 80%. On the same counts, the results for `Cc1cn(Cc2ccc(C(F)(F)F)cc2)c2ncc(NC(=O)C(C)C)cc12` [Compound 25, N-(3-methyl-1-(4-(trifluoromethyl)benzyl)-1H-pyrrolo[2,3-b]pyridin-5-yl)isobutyramide] are below 30% and 40 to 80%.

`C=CC(=O)Nc1cnc2c(c1)c(C)cn2CCC(C)C` [Compound 26, N-(1-isopentyl-3-methyl-1H-pyrrolo[2,3-b]pyridin-5-yl)acrylamide] gave an inhibition at 0.2 µM in assay [1] of 30 to 50%. Moreover, the inhibition at 5 µM in assay [2] is above 80%.

As to `C=CC(=O)Nc1cnc2c(n1)c(C)cn2Cc1ccc(C(F)(F)F)cc1` [Compound 28, N-(7-methyl-5-(4-(trifluoromethyl)benzyl)-5H-pyrrolo[2,3-b]pyrazin-2-yl)acrylamide], the inhibition at 0.2 µM in assay [1] is above 50%. In addition, in assay [2], the inhibition at 5 µM was above 80%.

Regarding `C=CC(=O)Nc1cc2ccn(Cc3ccc(C(F)(F)F)cc3)c2cn1` [Compound 29, N-(1-(4-(trifluoromethyl)benzyl)-1H-pyrrolo[2,3-c]pyridin-5-yl)acrylamide], the inhibition at 0.2 µM in assay [1] was below 30%. Besides, in assay [2], the inhibition at 5 µM fell in the range of 40 to 80%.
